18 molecules from US20250034136A1 (Nimbus Wadjet, Inc., priority 2023, published 2025) can be followed below.

Where two headings read alike, the source gives them in different places.

The target in assay [1] is WRN (BV08), human Werner helicase (Uniprot Q14191, amino acids 517-1235 with L1074F point mutation) (Homo sapiens (Human), UniProt Q14191, L1074F). The assay can be described thus: WRN (BV08) ADP-Glo assay. It is filed as biochemical. The conditions noted are these: class symbols A-E, read-out: ADP-Glo_hWRN_IC50.
Chain of WRN (BV08), human Werner helicase (Uniprot Q14191, amino acids 517-1235 with L1074F point mutation) (Q14191 other isoform, or with tags, fused parts or gaps L1074F (already in the parent)): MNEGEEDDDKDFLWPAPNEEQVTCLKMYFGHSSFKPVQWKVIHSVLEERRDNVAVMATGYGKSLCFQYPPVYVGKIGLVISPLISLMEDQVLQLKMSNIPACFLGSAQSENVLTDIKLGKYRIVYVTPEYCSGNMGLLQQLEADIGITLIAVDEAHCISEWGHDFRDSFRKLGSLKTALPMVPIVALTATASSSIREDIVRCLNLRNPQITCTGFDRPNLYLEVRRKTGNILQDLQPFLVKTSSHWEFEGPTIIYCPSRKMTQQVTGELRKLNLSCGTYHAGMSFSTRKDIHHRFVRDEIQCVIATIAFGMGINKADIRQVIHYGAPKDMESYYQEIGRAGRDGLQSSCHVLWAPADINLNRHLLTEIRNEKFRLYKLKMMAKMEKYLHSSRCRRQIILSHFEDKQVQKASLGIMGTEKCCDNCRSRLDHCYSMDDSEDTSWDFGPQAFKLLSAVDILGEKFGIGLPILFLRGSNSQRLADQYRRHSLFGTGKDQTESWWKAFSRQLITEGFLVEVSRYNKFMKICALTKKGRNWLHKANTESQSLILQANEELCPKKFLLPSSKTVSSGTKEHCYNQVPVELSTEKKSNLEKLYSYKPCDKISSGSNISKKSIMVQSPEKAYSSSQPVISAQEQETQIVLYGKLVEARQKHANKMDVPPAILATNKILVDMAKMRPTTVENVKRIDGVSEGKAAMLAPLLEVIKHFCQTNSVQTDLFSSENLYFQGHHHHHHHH
For assay [2], the system named is p21 induction in HCT116 cells. Description: p21 induction in HCT116 cells. The conditions noted are these: Homo sapiens, HCT-116, 24 h, read-out: P21_EC50. The class given is cell-based. The method in brief: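 EC50 from non-linear curve fit of p21 immunofluorescence (800 nm), with GAPDH (700 nm) read alongside. DMSO and a reference WRN inhibitor served as low and high controls. Cells (2,000/well) got 11 compound concentrations in duplicate for 24 h at 37 °C.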

Setting [3] is: HCT116 cells, 24 h compound incubation.

`CCc1c(N2CCN(C(=O)c3ncnc(C)c3O)[C@H]3CC[C@@H]32)c(=O)c2nc(N(C)[C@H]3C[C@H](OC)C3)cnc2n1CC(=O)Nc1ccc(C(F)(F)F)cc1Cl` [I-267, N-[2-chloro-4-(trifluoromethyl)phenyl]-2-{6-ethyl-7-[(1S,6S)-5-(5-hydroxy-6-methylpyrimidine-4-carbonyl)-2,5-diazabicyclo[4.2.0]octan-2-yl]-2-{methyl[(1r,3r)-3-methoxycyclobutyl]amino}-8-oxo-5H,8H-pyrido[2,3-b]pyrazin-5-yl}acetamide]: in assay [1], the IC50 lay within 5 to 50 nM. For the same molecule, in assay [2] (setting [3]), the EC50 is under 500 nM.
For `CCOc1ncc(C)c(O)c1C(=O)N1CCN(c2c(CC)n(CC(=O)Nc3ccc(C(F)(F)F)cc3Cl)c3ncc(N(C)C)nc3c2=O)[C@H]2CC[C@@H]21` [I-275, N-[2-chloro-4-(trifluoromethyl)phenyl]-2-[2-(dimethylamino)-7-[(1S,6S)-5-(2-ethoxy-4-hydroxy-5-methylpyridine-3-carbonyl)-2,5-diazabicyclo[4.2.0]octan-2-yl]-6-ethyl-8-oxo-5H,8H-pyrido[2,3-b]pyrazin-5-yl]acetamide], the IC50 in assay [1] was 5 to 50 nM. For the same molecule, the EC50 in assay [2] (setting [3]) was under 500 nM.
Turning to `CCc1c(N2CCN(C(=O)c3ncnc(C)c3O)C[C@@H]2C)c(=O)c2nc(N3CC[C@@H]3COC)cnc2n1CC(=O)Nc1ccc(C(F)(F)F)cc1Cl` [I-189, N-[2-chloro-4-(trifluoromethyl)phenyl]-2-{6-ethyl-7-[(2S)-4-(5-hydroxy-6-methylpyrimidine-4-carbonyl)-2-methylpiperazin-1-yl]-2-[(2R)-2-(methoxymethyl)azetidin-1-yl]-8-oxo-5H,8H-pyrido[2,3-b]pyrazin-5-yl}acetamide], in assay [1], the IC50 lay within 5 to 50 nM. In addition, the EC50 in assay [2] (setting [3]) lay within 500 to 2000 nM.
The matching figures for `CCc1c(N2CCN(C(=O)c3cccc4oc(=O)[nH]c34)CC2)c(=O)c2ncc(C)nc2n1CC(=O)Nc1ccc(C(F)(F)F)cc1Cl` [I-70, N-(2-chloro-4-(trifluoromethyl)phenyl)-2-(6-ethyl-3-methyl-8-oxo-7-(4-(2-oxo-2,3-dihydrobenzo[d]oxazole-4-carbonyl)piperazin-1-yl)pyrido[2,3-b]pyrazin-5(8H)-yl)acetamide]: 5 to 50 nM and over 5000 nM.
Consider `CCc1c(N2CCN(C(=O)c3ncnc(C)c3O)C[C@H]2C)c(=O)c2nc(N(C)C)cnc2n1CC(=O)Nc1ccc(C(F)(F)F)cc1Cl` [I-99, (R)—N-(2-chloro-4-(trifluoromethyl)phenyl)-2-(2-(dimethylamino)-6-ethyl-7-(4-(5-hydroxy-6-methylpyrimidine-4-carbonyl)-2-methylpiperazin-1-yl)-8-oxopyrido[2,3-b]pyrazin-5(8H)-yl)acetamide], for which, in assay [1], the IC50 lay in the range of 5 to 50 nM. Also, the EC50 in assay [2] (setting [3]) is over 5000 nM.
The matching figures for `CCc1c(N2CCN(C(=O)c3ncnc(C)c3O)CC2)c(=O)c2nc(N3CCC(C)(O)C3)cnc2n1CC(=O)Nc1ccc(C(F)(F)F)cc1Cl` (stereo not drawn) [I-47, N-(2-chloro-4-(trifluoromethyl)phenyl)-2-(6-ethyl-2-(3-hydroxy-3-methylpyrrolidin-1-yl)-7-(4-(5-hydroxy-6-methylpyrimidine-4-carbonyl)piperazin-1-yl)-8-oxopyrido[2,3-b]pyrazin-5(8H)-yl)acetamide]: 5 to 50 nM and over 5000 nM.
`C=C(C)c1nc2c(=O)c(N3CCN(C(=O)c4ncnc(C)c4O)CC3)c(CC)n(CC(=O)Nc3ccc(C(F)(F)F)cc3Cl)c2nc1C` [I-23, N-(2-chloro-4-(trifluoromethyl)phenyl)-2-(6-ethyl-7-(4-(5-hydroxy-6-methylpyrimidine-4-carbonyl)piperazin-1-yl)-3-methyl-8-oxo-2-(prop-1-en-2-yl)pyrido[2,3-b]pyrazin-5(8H)-yl)acetamide]: the IC50 in assay [1] lay in the range of 5 to 50 nM. Besides, in assay [2], the EC50 lay in the range of 500 to 2000 nM.
As to `CCc1c(N2CCN(C(=O)c3ncnc(C)c3O)CC2)c(=O)c2nc(N(C)C(C)C)cnc2n1CC(=O)Nc1ccc(C(F)(F)F)cc1Cl` [I-175, N-[2-chloro-4-(trifluoromethyl)phenyl]-2-{6-ethyl-7-[4-(5-hydroxy-6-methylpyrimidine-4-carbonyl)piperazin-1-yl]-2-[methyl(propan-2-yl)amino]-8-oxo-5H,8H-pyrido[2,3-b]pyrazin-5-yl}acetamide], the IC50 in assay [1] fell in the range of 5 to 50 nM. For the same molecule, the EC50 in assay [2] (setting [3]) was 2000 to 5000 nM.
The matching figures for `CCc1c(N2CCN(C(=O)c3ncnc(C)c3O)[C@H]3CC[C@@H]32)c(=O)c2nc(N(C)C)cnc2n1CC(=O)Nc1ccc(OC)cc1Cl` [I-289, N-(2-chloro-4-methoxyphenyl)-2-[2-(dimethylamino)-6-ethyl-7-[(1S,6S)-5-(5-hydroxy-6-methylpyrimidine-4-carbonyl)-2,5-diazabicyclo[4.2.0]octan-2-yl]-8-oxo-5H,8H-pyrido[2,3-b]pyrazin-5-yl]acetamide]: 5 to 50 nM and 500 to 2000 nM.
With `CCc1c(N2CCN(C(=O)c3ncnc(C)c3O)CC2)c(=O)c2nc3cc(C)sc3nc2n1CC(=O)Nc1ccc(C(F)(F)F)cc1Cl` [I-61, N-(2-chloro-4-(trifluoromethyl)phenyl)-2-(7-ethyl-6-(4-(5-hydroxy-6-methylpyrimidine-4-carbonyl)piperazin-1-yl)-2-methyl-5-oxopyrido[2,3-b]thieno[3,2-e]pyrazin-8(5H)-yl)acetamide], the IC50 in assay [1] fell in the range of 5 to 50 nM. Moreover, the EC50 in assay [2] (setting [3]) was under 500 nM.
For `CCc1c(N2CCN(C(=O)c3ncnc(C)c3O)CC2)c(=O)c2nc(N3CC[C@@H](O)C3)cnc2n1CC(=O)Nc1ccc(C(F)(F)F)cc1Cl` [I-56, (R)-N-(2-chloro-4-(trifluoromethyl)phenyl)-2-(6-ethyl-7-(4-(5-hydroxy-6-methylpyrimidine-4-carbonyl)piperazin-1-yl)-2-(3-hydroxypyrrolidin-1-yl)-8-oxopyrido[2,3-b]pyrazin-5(8H)-yl)acetamide] the same measures were 5 to 50 nM and over 5000 nM.
Consider `CCc1c(N2CCN(C(=O)c3ncnc(C)c3O)[C@H]3CC[C@@H]32)c(=O)c2nc(N(C)C[C@H](C)OC)cnc2n1CC(=O)Nc1ccc(C(F)(F)F)cc1Cl` [I-269, N-[2-chloro-4-(trifluoromethyl)phenyl]-2-{6-ethyl-7-[(1S,6S)-5-(5-hydroxy-6-methylpyrimidine-4-carbonyl)-2,5-diazabicyclo[4.2.0]octan-2-yl]-2-{[(2S)-2-methoxypropyl](methyl)amino}-8-oxo-5H,8H-pyrido[2,3-b]pyrazin-5-yl}acetamide], for which, in assay [1], the IC50 lay in the range of 5 to 50 nM. Also, the EC50 in assay [2] (setting [3]) is under 500 nM.
For `CCc1c(N2CCN(C(=O)c3nccc(Cl)c3O)CC2)c(=O)c2nc(N(C)C)cnc2n1CC(=O)Nc1ccc(C(F)(F)F)cc1Cl` [I-218, 2-{7-[4-(4-chloro-3-hydroxypyridine-2-carbonyl)piperazin-1-yl]-2-(dimethylamino)-6-ethyl-8-oxo-5H,8H-pyrido[2,3-b]pyrazin-5-yl}-N-[2-chloro-4-(trifluoromethyl)phenyl]acetamide] the same measures were at most 5 nM and 500 to 2000 nM.
`CCc1c(N2CCN(C(=O)c3ncnc(C)c3O)CC2)c(=O)c2nc(C(C)(C)O)c(C)nc2n1CC(=O)Nc1ccc(C(F)(F)F)cc1Cl` [I-22, N-(2-chloro-4-(trifluoromethyl)phenyl)-2-(6-ethyl-7-(4-(5-hydroxy-6-methylpyrimidine-4-carbonyl)piperazin-1-yl)-2-(2-hydroxypropan-2-yl)-3-methyl-8-oxopyrido[2,3-b]pyrazin-5(8H)-yl)acetamide]: the IC50 in assay [1] lay in the range of 50 to 100 nM. Moreover, the EC50 in assay [2] (setting [3]) is over 5000 nM.
For `CCc1c(N2CCN(C(=O)c3ncnc(C)c3O)[C@H]3CC[C@@H]32)c(=O)c2nc(-c3cncs3)cnc2n1CC(=O)Nc1ccc(C(F)(F)F)cc1Cl` [I-272, N-[2-chloro-4-(trifluoromethyl)phenyl]-2-{6-ethyl-7-[(1S,6S)-5-(5-hydroxy-6-methylpyrimidine-4-carbonyl)-2,5-diazabicyclo[4.2.0]octan-2-yl]-8-oxo-2-(1,3-thiazol-5-yl)-5H,8H-pyrido[2,3-b]pyrazin-5-yl}acetamide] the same measures were 5 to 50 nM and under 500 nM.
For `CCc1c(N2CCN(C(=O)c3ncnc(C)c3O)[C@H]3CC[C@@H]32)c(=O)c2nc(N3CCCC3=O)cnc2n1CC(=O)Nc1ccc(C(F)(F)F)cc1Cl` [I-253, N-[2-chloro-4-(trifluoromethyl)phenyl]-2-{6-ethyl-7-[(1S,6S)-5-(5-hydroxy-6-methylpyrimidine-4-carbonyl)-2,5-diazabicyclo[4.2.0]octan-2-yl]-8-oxo-2-(2-oxopyrrolidin-1-yl)-5H,8H-pyrido[2,3-b]pyrazin-5-yl}acetamide] the same measures were 5 to 50 nM and under 500 nM.
Turning to `CCc1c(N2CCN(C(=O)c3ncc4c(c3O)CCO4)CC2)c(=O)c2nc(N(C)C3CC3)cnc2n1CC(=O)Nc1ccc(C(F)(F)F)cc1Cl` [I-194, N-[2-chloro-4-(trifluoromethyl)phenyl]-2-{2-[cyclopropyl(methyl)amino]-6-ethyl-7-(4-{4-hydroxy-2H,3H-furo[2,3-c]pyridine-5-carbonyl}piperazin-1-yl)-8-oxo-5H,8H-pyrido[2,3-b]pyrazin-5-yl}acetamide], the IC50 in assay [1] is at most 5 nM. The EC50 in assay [2] (setting [3]) was under 500 nM.
Take `CCc1c(N2CCN(C(=O)c3ncnc(C)c3O)CC2)c(=O)c2nc3cc(C)sc3nc2n1CC(=O)NC12CC(C(F)(F)F)(C1)C2` [I-115, 2-(7-ethyl-6-(4-(5-hydroxy-6-methylpyrimidine-4-carbonyl)piperazin-1-yl)-2-methyl-5-oxopyrido[2,3-b]thieno[3,2-e]pyrazin-8(5H)-yl)-N-(3-(trifluoromethyl)bicyclo[1.1.1]pentan-1-yl)acetamide]: the IC50 in assay [1] was in the range of 5 to 50 nM. In assay [2] (setting [3]), the EC50 is over 5000 nM.
